Laboratory results published in patent US20140378460A1, “COMPOSITIONS AND METHODS FOR TREATING NEURODEGENERATIVE DISEASE” (COGNITION THERAPEUTICS, INC., priority 2011, published 2014).
Read-outs that look alike come from different tables or passages of the source.

Assays:
[1] = test system: Abeta oligomer-induced membrane trafficking deficits in primary hippocampal neurons; experiment: Membrane trafficking/exocytosis (MTT) assay; format: cell-based, rat
Procedure: The methods used to generate the results were as follows in the Membrane Trafficking/Exocytosis (MTT) assay.
Primary hippocampal neurons from E18 Sprague-Dawley rat embryos were plated at optimized concentrations in 384 well plates in NB media (Invitrogen). Neurons were maintained in cultures for 3 weeks, with twice weekly feeding of NB media with N2 supplement (Invitrogen).
A test compound was added to cells at concentrations ranging from 100 uM to 0.001 nM followed by addition of vehicle or Abeta oligomer preparations (3 μM total Abeta protein concentration), and incubated for 1 to 24 hr at 37° C. in 5% CO2. MTT reagent (3-(4,5-dimethylthizaol-2-yl)-2,5diphenyl tetrazolium bromide) (Roche Molecular Biochemicals) was reconstituted in phosphate buffered saline to 5 mg/mL. 10 μl, of MTT labeling reagent is added to each well and incubated at 37° C. for 1 h, then imaged. Exocytosis was assessed by automated microscopy and image processing to quantify the amount of endocytosed and exocytosed formazan.
Each assay plate was formatted so that compounds are tested with and without Abeta oligomer on each plate.

[2] = target: T1, sigma-2 receptor (Rattus norvegicus, UniProt Q5U3Y7); parameters: other: known prior art compounds, published studies; details: cited from earlier work
T1 sequence (Q5U3Y7 1-176): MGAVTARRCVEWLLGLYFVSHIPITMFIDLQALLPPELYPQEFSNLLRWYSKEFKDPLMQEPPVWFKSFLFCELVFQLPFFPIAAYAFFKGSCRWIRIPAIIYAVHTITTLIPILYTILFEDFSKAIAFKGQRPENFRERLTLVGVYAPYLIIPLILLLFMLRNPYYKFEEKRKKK

[3] = Drug-like properties of known compounds (BBB, oxidative metabolism); details: (Oxidative substr.; Not BBB, Ox Sub.); first line given
[4] = target: Sigma-1 receptors; details: cited from earlier work; for Ki: Table 11E, clinical compounds, first figure of S1/S2, read-out: Sigma Affinity (S1); for Sigma 1 (Type of Activity): known prior art compounds
[5] = target: Sigma-2 receptors; details: cited from earlier work; for Ki: Table 11E, clinical compounds, second figure of S1/S2, read-out: Sigma Affinity (S2)
[6] = test system: muscarinic M1-M4; details: cited from earlier work
[7] = test system: Na + ch2; details: cited from earlier work
[8] = target: NMDAR2B (Homo sapiens, UniProt Q13224); details: cited from earlier work
[9] = target: T2, Sigma-1 receptors (UniProt Q60492); details: cited from earlier work
T2 construct: other: known prior art compounds, published studies

[10] = list wraps over the rows below; first line given; cited from earlier work
[11] = target: serotonin transporter (Homo sapiens, UniProt P31645); details: cited from earlier work
[12] = target: Dopamine transporter (Homo sapiens, UniProt Q01959); details: cited from earlier work
[13] = target: Adrenergic transporter (Homo sapiens, UniProt P23975); details: cited from earlier work
[14] = test system: Abeta oligomer-induced synapse loss in primary hippocampal neurons; experiment: Synapse loss assay; format: cell-based, rat
Procedure: In this assay, Abeta oligomers were brought in contact with mature primary neurons in culture and their binding was determined by immunohistochemistry (anti-Abeta antibody) and quantified by image processing. The amount of Abeta in neuronal dendrites is assessed by counting the number of labeled puncta on the neuritis. […] This labeling is associated with synapses, co-localizing with the post-synaptic scaffold protein PSD-95 (Lacor et al., '04). […] The number of synapses can also be quantified in this assay by immunofluorochemistry. Similar procedures for binding assays can be found in the literature. […] Review.
Primary hippocampal neuronal culture was established as in the membrane trafficking assay above. […] Pretreatment with compounds to be tested lasted for 1 hr and addition of Abeta oligomers or no oligomer (vehicle alone) in a final concentration of 70 ul was followed by incubation for an additional 23 hrs.
The plates were then washed 3× with PBS for 5 min each. The plates were blocked at RT for 1 hr in 5% goat serum and 0.5% Triton X-100 in PBS. […] Primary antibodies were incubated overnight at 4° C. The plates were then washed 3× with PBS for 5 min each. […] Secondary antibodies were incubated at RT for 1 hr. The plates were washed once with PBS. DAPI (4′,6-diamidino-2-phenylindole, Invitrogen) was then applied at 0.03 ug/ul and incubated at RT for 5 min, then washed with PBS.

[15] = test system: 5-HT2A, B, C; details: cited from earlier work
[16] = test system: alpha 1A, 1B; details: cited from earlier work
[17] = target: NMDAR2A (Homo sapiens, UniProt Q12879); details: cited from earlier work
[18] = test system: PCP; details: cited from earlier work
[19] = test system: SKOV-3 human ovarian cancer cell line; experiment: MTS tumor cell viability assay; format: cell-based
Procedure: The cytotoxicity of compounds shown below was determined using the CellTiter96 Aqueous One Solution Assay (Promega, Madison, Wis.). […] The plate was read at 490 nm in a Victor3 plate reader (PerkinElmer Life and Analytical Sciences, Shelton, Conn.). The EC^50 value, defined as the concentration of the sigma ligand required to inhibit cell viability by 50% relative to untreated cells, was determined from the dose response curve for each cell line.

[20] = test system: caspase-3 in SKOV-3 human ovarian cancer cells; experiment: Caspase-3 activity in tumor cells; format: cell-based
[21] = test system: caspase-3 in neuronal cultures; experiment: Caspase-3 activity in neurons; format: cell-based
[22] = test system: neuronal cultures
[23] = test system: K+ ch; details: b58; cited from earlier work
[24] = Table 11C, known prior art compounds, read-out: Inhibition Abeta oligomer-induced Membrane Trafficking EC50
[25] = Table 11D, read-out: Membrane trafficking IC50
[26] = Table 11C, read-out: S1 binding Ki
[27] = Table 11D, read-out: Sigma-1 Receptor Ki
[28] = known prior art compounds, published studies, read-out: Sigma 1 Binding Ki
[29] = Table 11C, read-out: S2 binding Ki
[30] = Table 11D, read-out: Sigma-2 Receptor Ki
[31] = known prior art compounds, published studies, read-out: Sigma 2 Binding Ki
[32] = Rattus norvegicus, Hippocampal neuron, Table 11C, known prior art compounds, read-out: Inhibition Abeta oligomer-induced Membrane Trafficking EC50
[33] = read-out: S2 binding Ki, Table 11C

Sequence of NMDAR2B (Q13224 27-1484, species assumed, other chains not shown): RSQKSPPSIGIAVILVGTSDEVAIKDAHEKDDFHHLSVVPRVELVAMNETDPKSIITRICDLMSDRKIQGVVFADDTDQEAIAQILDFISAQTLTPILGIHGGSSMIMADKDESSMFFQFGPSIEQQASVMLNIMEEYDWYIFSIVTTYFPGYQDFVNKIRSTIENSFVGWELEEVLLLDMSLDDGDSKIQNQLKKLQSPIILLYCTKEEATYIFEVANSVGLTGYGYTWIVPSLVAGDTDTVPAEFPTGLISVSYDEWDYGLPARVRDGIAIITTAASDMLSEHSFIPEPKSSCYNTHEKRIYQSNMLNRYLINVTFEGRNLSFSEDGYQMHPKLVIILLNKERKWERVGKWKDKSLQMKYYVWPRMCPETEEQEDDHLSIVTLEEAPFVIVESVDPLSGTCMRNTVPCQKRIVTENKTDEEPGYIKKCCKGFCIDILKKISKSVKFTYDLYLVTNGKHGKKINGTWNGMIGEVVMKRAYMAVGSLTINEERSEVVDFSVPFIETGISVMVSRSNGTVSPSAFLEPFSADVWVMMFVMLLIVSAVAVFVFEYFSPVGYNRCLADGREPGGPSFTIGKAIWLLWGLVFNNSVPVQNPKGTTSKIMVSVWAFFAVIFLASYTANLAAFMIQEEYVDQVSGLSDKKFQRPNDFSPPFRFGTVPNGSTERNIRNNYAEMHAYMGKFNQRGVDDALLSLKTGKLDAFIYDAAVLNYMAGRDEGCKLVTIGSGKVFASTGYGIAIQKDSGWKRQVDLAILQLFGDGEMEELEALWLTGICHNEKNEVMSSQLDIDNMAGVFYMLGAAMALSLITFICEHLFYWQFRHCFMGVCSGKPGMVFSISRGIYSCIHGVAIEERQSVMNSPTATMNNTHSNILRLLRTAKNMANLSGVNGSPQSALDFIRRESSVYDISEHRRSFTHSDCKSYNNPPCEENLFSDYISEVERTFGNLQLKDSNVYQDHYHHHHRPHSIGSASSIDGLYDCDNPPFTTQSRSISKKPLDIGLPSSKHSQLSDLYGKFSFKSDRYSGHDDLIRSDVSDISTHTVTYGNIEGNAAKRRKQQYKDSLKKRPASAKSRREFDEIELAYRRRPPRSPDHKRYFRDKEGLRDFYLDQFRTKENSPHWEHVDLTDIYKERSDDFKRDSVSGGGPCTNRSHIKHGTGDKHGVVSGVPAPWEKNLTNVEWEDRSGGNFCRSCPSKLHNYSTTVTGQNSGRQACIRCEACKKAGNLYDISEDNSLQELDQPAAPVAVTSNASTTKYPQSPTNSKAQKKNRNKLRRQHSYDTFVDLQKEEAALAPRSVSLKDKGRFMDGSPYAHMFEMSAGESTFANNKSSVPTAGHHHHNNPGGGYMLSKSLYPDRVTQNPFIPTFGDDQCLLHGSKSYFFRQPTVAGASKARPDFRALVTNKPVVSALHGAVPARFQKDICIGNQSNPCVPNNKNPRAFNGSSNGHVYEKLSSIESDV
Sequence of Adrenergic transporter (P23975 whole entry): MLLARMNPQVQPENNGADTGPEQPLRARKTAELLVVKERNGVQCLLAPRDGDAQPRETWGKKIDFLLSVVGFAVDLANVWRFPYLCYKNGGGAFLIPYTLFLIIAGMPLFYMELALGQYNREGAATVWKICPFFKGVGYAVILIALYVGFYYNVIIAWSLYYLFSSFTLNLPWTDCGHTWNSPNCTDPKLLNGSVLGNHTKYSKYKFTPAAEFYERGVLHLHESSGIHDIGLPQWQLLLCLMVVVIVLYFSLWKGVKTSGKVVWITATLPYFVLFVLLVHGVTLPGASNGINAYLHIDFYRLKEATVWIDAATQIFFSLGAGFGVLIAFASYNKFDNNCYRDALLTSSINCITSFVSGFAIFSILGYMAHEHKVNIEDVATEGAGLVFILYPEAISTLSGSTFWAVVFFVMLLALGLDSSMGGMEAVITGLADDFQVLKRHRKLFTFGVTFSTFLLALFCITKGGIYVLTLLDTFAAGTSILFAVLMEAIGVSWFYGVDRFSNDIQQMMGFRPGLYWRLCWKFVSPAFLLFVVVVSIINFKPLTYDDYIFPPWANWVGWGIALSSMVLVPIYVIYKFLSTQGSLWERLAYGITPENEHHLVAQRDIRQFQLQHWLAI
Sequence of serotonin transporter (P31645 whole entry): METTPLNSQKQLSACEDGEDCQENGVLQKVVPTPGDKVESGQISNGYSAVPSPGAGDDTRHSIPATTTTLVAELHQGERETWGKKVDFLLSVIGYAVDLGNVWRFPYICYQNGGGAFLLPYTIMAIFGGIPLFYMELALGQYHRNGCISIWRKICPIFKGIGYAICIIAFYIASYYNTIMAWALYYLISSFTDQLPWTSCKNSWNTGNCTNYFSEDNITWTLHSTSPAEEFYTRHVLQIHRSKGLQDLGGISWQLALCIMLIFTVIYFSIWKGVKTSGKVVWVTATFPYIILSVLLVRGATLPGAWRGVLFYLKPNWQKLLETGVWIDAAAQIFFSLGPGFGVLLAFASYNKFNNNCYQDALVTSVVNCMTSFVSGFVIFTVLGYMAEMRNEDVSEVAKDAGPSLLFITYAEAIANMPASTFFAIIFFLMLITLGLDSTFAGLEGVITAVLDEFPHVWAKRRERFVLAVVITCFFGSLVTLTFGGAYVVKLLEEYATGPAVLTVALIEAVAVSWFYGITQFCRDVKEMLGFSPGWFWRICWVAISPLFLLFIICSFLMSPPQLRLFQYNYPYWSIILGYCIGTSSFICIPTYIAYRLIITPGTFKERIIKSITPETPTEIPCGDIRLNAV
Sequence of Dopamine transporter (Q01959 whole entry): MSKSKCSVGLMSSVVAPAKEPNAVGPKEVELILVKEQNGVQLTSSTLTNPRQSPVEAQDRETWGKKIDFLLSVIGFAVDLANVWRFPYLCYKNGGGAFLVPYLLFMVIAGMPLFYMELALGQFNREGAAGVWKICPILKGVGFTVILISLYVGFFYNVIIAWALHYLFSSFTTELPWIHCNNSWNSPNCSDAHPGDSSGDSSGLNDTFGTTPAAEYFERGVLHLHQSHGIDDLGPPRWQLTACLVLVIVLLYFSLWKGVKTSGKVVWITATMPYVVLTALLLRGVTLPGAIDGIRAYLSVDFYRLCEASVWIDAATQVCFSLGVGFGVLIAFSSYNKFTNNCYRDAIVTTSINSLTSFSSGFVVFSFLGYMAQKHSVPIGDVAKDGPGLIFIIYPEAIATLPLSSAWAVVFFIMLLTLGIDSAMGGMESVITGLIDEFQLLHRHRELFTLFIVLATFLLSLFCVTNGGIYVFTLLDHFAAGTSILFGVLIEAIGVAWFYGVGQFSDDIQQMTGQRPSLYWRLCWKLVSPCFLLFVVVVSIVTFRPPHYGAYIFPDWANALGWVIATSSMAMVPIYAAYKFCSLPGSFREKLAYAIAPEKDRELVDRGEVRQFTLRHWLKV
Sequence of NMDAR2A (Q12879 23-1464, other chains not shown): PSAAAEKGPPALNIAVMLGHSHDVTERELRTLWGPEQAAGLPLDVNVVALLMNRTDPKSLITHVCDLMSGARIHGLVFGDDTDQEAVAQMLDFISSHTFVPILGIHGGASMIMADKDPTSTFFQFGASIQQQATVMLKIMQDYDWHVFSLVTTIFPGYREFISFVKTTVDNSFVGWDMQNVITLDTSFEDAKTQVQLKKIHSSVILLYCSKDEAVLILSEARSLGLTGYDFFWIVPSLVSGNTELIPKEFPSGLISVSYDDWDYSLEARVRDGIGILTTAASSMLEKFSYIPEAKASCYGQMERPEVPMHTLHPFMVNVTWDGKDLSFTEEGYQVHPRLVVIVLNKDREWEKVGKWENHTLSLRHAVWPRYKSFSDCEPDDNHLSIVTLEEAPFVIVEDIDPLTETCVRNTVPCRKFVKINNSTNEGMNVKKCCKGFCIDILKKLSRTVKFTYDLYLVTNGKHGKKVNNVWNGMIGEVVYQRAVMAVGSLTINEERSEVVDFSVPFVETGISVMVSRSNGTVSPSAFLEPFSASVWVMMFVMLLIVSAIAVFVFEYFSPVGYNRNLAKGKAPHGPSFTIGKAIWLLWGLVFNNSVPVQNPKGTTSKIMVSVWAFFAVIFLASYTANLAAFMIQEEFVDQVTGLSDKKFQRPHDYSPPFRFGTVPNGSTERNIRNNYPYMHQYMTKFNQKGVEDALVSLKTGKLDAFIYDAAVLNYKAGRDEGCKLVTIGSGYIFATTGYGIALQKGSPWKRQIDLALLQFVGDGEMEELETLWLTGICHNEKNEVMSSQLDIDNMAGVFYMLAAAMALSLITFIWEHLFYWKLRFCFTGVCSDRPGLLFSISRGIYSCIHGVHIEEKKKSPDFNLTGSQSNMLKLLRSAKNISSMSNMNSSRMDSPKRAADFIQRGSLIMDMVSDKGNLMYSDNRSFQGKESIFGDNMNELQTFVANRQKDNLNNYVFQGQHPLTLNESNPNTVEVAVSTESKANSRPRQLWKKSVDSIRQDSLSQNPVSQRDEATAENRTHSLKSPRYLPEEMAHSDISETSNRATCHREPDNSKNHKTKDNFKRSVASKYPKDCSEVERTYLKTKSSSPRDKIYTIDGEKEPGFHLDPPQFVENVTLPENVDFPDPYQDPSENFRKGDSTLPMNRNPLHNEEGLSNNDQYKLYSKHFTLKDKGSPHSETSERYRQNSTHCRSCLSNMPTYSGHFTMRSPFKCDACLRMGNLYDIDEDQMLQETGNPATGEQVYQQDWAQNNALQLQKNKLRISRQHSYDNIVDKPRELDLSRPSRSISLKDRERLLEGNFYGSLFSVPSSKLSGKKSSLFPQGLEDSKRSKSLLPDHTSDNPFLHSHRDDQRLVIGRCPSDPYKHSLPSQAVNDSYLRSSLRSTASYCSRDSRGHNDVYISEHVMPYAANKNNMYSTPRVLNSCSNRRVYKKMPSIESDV

For `CC(C)=CCN1CCC2(C)c3cc(O)ccc3CC1C2C` (single isomer, unassigned; (+)) [(+) Pentazocine, (+)-pentazocine], the IC50 ([1]; Rattus norvegicus, Hippocampal neuron, read-out: Membrane trafficking IC50 (uM)) is listed as 7.6 µM, the “Functional Neuronal Phenotype” value ([1]; Table 11D) is listed as “Antagonist” and the Ki ([2]; read-out: Sigma-2 Receptor Ki, Table 11D) is listed as > 5000 nM. For the same compound, the Drug-like properties [3] was “Yes”.

For `CN(C)CC1COC(c2ccccc2)(c2ccccc2)C1` (stereo not shown) [Anavex 1-41], the Ki [4] is listed as 7 nM, the Ki [5] is listed as > 10000 nM and the “Other Targets: muscarinic M1-M4” value [6] is listed as “(18-114 nM), Na +”. The “Other Targets: Na + ch2” value [7] was “ch2 (>10 uM)”.

In the case of `CN(C)CC1CCOC1(c1ccccc1)c1ccccc1` (stereo not shown) [Anavex 2-73], the Ki [4] is given as 860 nM, the Ki [5] is given as > 20000 nM and the “Other Targets: muscarinic M1-M4” value [6] is given as “(3-5 uM),”. For the same compound, the “Other Targets: NMDAR2B” value [8] was “NMDAR2B (8 uM” and the “Other Targets: Na + ch2” value [7] was “(5 uM)”.

In the case of `CN(C)CCN(C)CCc1ccc(Cl)c(Cl)c1` [BD1047], the “Max Inhibition of Abeta (%)” value [1] is reported as 100%, the “Functional Neuronal Phenotype” value ([1]; Table 11C) is reported as “Antagonist” and the EC50 [1, 24] is reported as 2.4 µM. For the same compound, the “Functional Neuronal Phenotype” value ([1]; Table 11D) was “Antagonist”, the IC50 [1, 25] was 2.4 µM and the Ki [9, 26] was 0.9 nM. The Ki [9, 27] was 0.9 nM, the Ki [9, 28] was 0.9 nM and the “Sigma 1 (Type of Activity)” value [4] was “(antagonist)”. The Selectivity other activities [10] was “D2, β3-AR”, the Ki [2, 29] was 47 nM and the Ki [2, 30] was 47 nM. For the same compound, the Ki [2, 31] was 47 nM.

For `COCCCC/C(=N\OCCN)c1ccc(C(F)(F)F)cc1` [Fluvoxamine, fluvoxamine], the EC50 [1, 32] was 2.5 µM, the IC50 ([1]; Rattus norvegicus, Hippocampal neuron, Table 11D, read-out: Membrane trafficking IC50) was 2.5 µM and the “Functional Neuronal Phenotype” value ([1]; Table 11C) was “Antagonist”. The “Functional Neuronal Phenotype” value ([1]; Table 11D) was “Antagonist”, the Ki [9, 26] was 13 nM and the Ki [9, 27] was 13 nM. The Ki [9, 28] was 13 nM, the “Sigma 1 (Type of Activity)” value [4] was “(agonist)” and the Ki [5] was 710 nM. The “Other Targets: serotonin transporter” value [11] was “nM), Serotonin (12”, the “Other Targets: Dopamine transporter” value [12] was “transporter (1.5 nM” and the “Other Targets: Adrenergic transporter” value [13] was “transporter (299 nM”.

In the case of `O=C(CCCN1CCC(O)(c2ccc(Cl)cc2)CC1)c1ccc(F)cc1` [Haloperidol, haloperidol], the “Max Inhibition of Abeta (%)” value [1] is reported as 100%, the “Functional Neuronal Phenotype” value ([1]; Table 11C) is reported as “Antagonist” and the “Functional Neuronal Phenotype” value ([1]; Table 11D) is reported as “Antagonist”. For the same compound, the “Effect on Abeta oligomer-induced synapse loss” value [14] was “completely eliminated synapse loss”, the “Sigma 1 (Type of Activity)” value [4] was “(antagonist)” and the Drug-like properties [3] was “Yes”.

In the case of `OCCN1CCN(CCCN2c3ccccc3C=Cc3ccccc32)CC1` [Opipramol], the Ki [4] is listed as 7 nM, the Ki [5] is listed as 56 nM and the “Other Targets: 5-HT2A, B, C” value [15] is listed as 5-HT2A, B, C (120 nM. The “Other Targets: alpha 1A, 1B” value [16] was 1A, 1B(200 nM).

For `CC(C)=CCN1CCC2(C)c3cc(O)ccc3CC1C2C` (stereo not shown) [Pentazocine, pentazocine], the EC50 ([1]; Rattus norvegicus, Hippocampal neuron, read-out: Inhibition Abeta oligomer-induced Membrane Trafficking EC50 (uM)) is listed as 7.6 µM, the “Functional Neuronal Phenotype” value ([1]; Table 11C) is listed as “Antagonist” and the Ki [5] is listed as 5000 nM. The “Other Targets: NMDAR2B” value [8] was “NMDAR2B (2.5 uM”, the “Other Targets: 2A (NMDAR2A)” value [17] was “uM), 2A (2.7 uM),” and the “Other Targets: PCP” value [18] was “PCP (2.9 uM)”. The Ki [2, 33] was > 5000 nM.

In the case of `CCC(Oc1ccc(Cl)cc1)C(=O)OC1CC2CCC(C1)N2C` (stereo not shown) [SM-21], the “Max Inhibition of Abeta (%)” value [1] is reported as 65%, the “Functional Neuronal Phenotype” value ([1]; Table 11C) is reported as “Antagonist” and the EC50 [1, 24] is reported as 2.2 µM. For the same compound, the “Functional Neuronal Phenotype” value ([1]; Table 11D) was “Antagonist”, the IC50 [1, 25] was 2.2 µM and the “Abeta oligomer-induced synapse loss eliminated / recovery” value ([14]; b801) was 20%. The Ki [9, 26] was 1050 nM, the Ki [9, 27] was 1050 nM and the Ki [9, 28] was 1050 nM. For the same compound, the “Sigma 1 (Type of Activity)” value [4] was “(antagonist)”, the Selectivity other activities [10] was “Muscarinic” and the Ki [2, 29] was 145 nM. For the same compound, the Ki [2, 30] was 145 nM and the Ki [2, 31] was 145 nM.

In the case of `COc1ccc(C)cc1NC(=O)OC1CC2CCCC(C1)N2CCCCCCN` (stereo not shown) [SV-119], the “Effect on Abeta oligomer trafficking deficits over the concentrations tested” value [1] is reported as “blocks Abeta oligomer trafficking deficits at low concentrations, but causes cellular toxicity at high concentrations”, the EC50 [1, 32] is reported as 2.6 µM and the “Functional Neuronal Phenotype” value ([1]; Table 11C) is reported as “Agonist”. The IC50 ([19]; Homo sapiens, SK-OV-3, tumor cell viability, 48 hrs) was 21.7 ± 2.9 µM, the Action ([19]; by EC50 relative to siramesine) was “Full agonist” and the “Caspase-3 activity induced in tumor cells” value [20] was “caspase-3 activation”. For the same compound, the “Caspase-3 activity induced in neurons” value [21] was “caspase-3 activation”, the “Nuclear morphology / nuclear intensity in neurons” value [22] was “caused significant abnormal nuclear morphology” and the Ki [9, 26] was 1400 nM. The Ki [2, 33] was 8 nM.

For `C[C@@H]([C@@H](O)c1ccc(O)cc1)N1CCC(Cc2ccccc2)CC1` [Threo-ifenprodil (TIF), Threo-ifenprodil], the “Effect on Abeta oligomer trafficking deficits over the concentrations tested” value [1] was “does not cause apoptosis, affect trafficking or interfere with Abeta oligomer-induced trafficking deficits when dosed alone”, the “Max Inhibition of Abeta (%)” value [1] was 39% and the “Functional Neuronal Phenotype” value ([1]; Table 11C) was “Inactive”. For the same compound, the EC50 [1, 24] was > 20 µM, the “Sigma 2 type of activity” value ([5]; in brackets after the Ki) was “agonist” and the “Affinity K+ ch” value [23] was 88 nM.
